# From EPA's ToxValDB 9.5 (doi:10.2903/j.efsa.2008.124r)
# Key:
# Daphnia magna = conditions: chronic/long-term; duration: 21 days; mortality
# Folsomia candida = conditions: chronic/long-term; duration: 28 days
# Bibionidae = conditions: chronic/long-term; duration: 28 days; development
# Phasianus sp. = conditions: acute; oral; unspecified; mortality
# Anas platyrhynchos = conditions: acute; oral; unspecified; mortality
# Apis mellifera = conditions: acute, mortality
# Canidae = conditions: chronic; duration: 1 years; oral; Dog Other; organ weight
# Oncorhynchus mykiss = conditions: chronic/long-term; duration: 21 days; mortality
# Tagia sp. = conditions: acute; duration: 14 days; mortality
# Lepomis macrochirus = conditions: acute; duration: 96 hours; mortality
smiles,measurement,setting,value
CC(Cc1ccc(C(C)(C)C)cc1)CN1CCCCC1 (stereo unspecified) [Fenpropidin],LD50,"Colinus virginianus; acute, oral, diet, mortality",> 1420 mg/kg-day
same,NOAEL,Colinus virginianus; reproduction developmental,14.6 mg/kg-day
same,NOEC,Daphnia magna,0.32 mg/L
same,NOEC,Folsomia candida,46.5 mg/kg
same,NOEC,Bibionidae,1 mg/L
same,LD50,Phasianus sp.,369 mg/kg-day
same,LD50,Anas platyrhynchos,1900 mg/kg-day
same,LD50,Apis mellifera; dermal,46 µg/piece
same,LD50,"Apis mellifera; oral, unspecified",> 10 µg/piece
same,NOAEL,Canidae,2 mg/kg-day
same,NOEC,Oncorhynchus mykiss,0.32 mg/L
same,LC50,Tagia sp.,> 500 mg/kg
same,LD50,"Rattus norvegicus; acute, mortality",1450 mg/kg-day
same,NOAEL,"Rattus norvegicus; chronic, duration: 2 years, body weight",2.27 mg/kg-day
same,NOAEL,Rattus norvegicus; reproduction developmental,60.2 mg/kg-day
same,LC50,Lepomis macrochirus,1.9 µg/mL
